From patent US10689344B2, “Biphenylamide derivative Hsp90 inhibitors” (University of Kansas, priority 2013, dated 2020)

How the values were obtained:
[1] = test system: SKBr3 (estrogen receptor negative, HER2 over-expressing breast cancer cells); assay: Anti-proliferation assay (MTS/PMS, 72 h), SKBr3; assay type: cell-based; conditions: Homo sapiens
In short: (§1)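 Cells seeded at 2000/well, attached overnight, then exposed to compound at varying concentrations (1% DMSO final) for 72 h at 37° C, 5% CO2. Viability by MTS/PMS, normalised to 1% DMSO controls as 100% proliferation; IC50 from separate triplicate experiments.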

[2] = test system: MCF-7 (estrogen receptor positive breast cancer cells); assay: Anti-proliferation assay (MTS/PMS, 72 h), MCF-7; assay type: cell-based; conditions: Homo sapiens
In short: as §1

[3] = SK-BR-3, Table 8, para-para biphenyl core with substituted biphenylamide group
[4] = MCF7, Table 8, para-para biphenyl core with substituted biphenylamide group
[5] = SK-BR-3, Table 5, modified linkers in para-para biphenyl core
[6] = MCF7, Table 5, modified linkers in para-para biphenyl core
[7] = SK-BR-3, Table 7, para-para biphenyl core with modified ether groups
[8] = MCF7, Table 7, para-para biphenyl core with modified ether groups
[9] = SK-BR-3, Table 1, ortho, meta and para biphenyl cores
[10] = MCF7, Table 1, ortho, meta and para biphenyl cores

Row | IC50 [1, 3] | IC50 [2, 4] | IC50 [1, 9] | IC50 [2, 10] | Compound | further results
1 | 810 ± 140 nM | 1020 ± 80 nM | – | – | COc1cccc(-c2cccc(C(=O)Nc3ccc(-c4ccc(OC5CCN(C)CC5)cc4)cc3)c2)c1 [Compound 49b, 3′-methoxy-N-(4′-((1-methylpiperidin-4-yl)oxy)-[1,1′-biphenyl]-4-yl)-[1,1′-biphenyl]-3-carboxamide] | –
2 | 630 ± 40 nM | 790 ± 130 nM | – | – | COc1ccc(-c2cc(C(=O)Nc3ccc(-c4ccc(OC5CCN(C)CC5)cc4)cc3)ccc2OC)cc1 [Compound 49c, 4′,6-dimethoxy-N-(4′-((1-methylpiperidin-4-yl)oxy)-[1,1′-biphenyl]-4-yl)-[1,1′-biphenyl]-3-carboxamide] | –
3 | 270 ± 50 nM | 620 ± 70 nM | – | – | COc1ccc(C(=O)Nc2ccc(-c3ccc(OC4CCN(C)CC4)cc3)cc2)cc1-c1cccc(OC(C)=O)c1 [Compound 49d, 2′-methoxy-5′-((4′-((1-methylpiperidin-4-yl)oxy)-[1,1′-biphenyl]-4-yl)carbamoyl)-[1,1′-biphenyl]-3-yl acetate] | –
4 | 140 ± 10 nM | 640 ± 80 nM | – | – | COc1ccc(C(=O)Nc2ccc(-c3ccc(OC4CCN(C)CC4)cc3)cc2)cc1-c1ccc(OC(C)=O)cc1 [Compound 49e, 2′-methoxy-5′-((4′-((1-methylpiperidin-4-yl)oxy)-[1,1′-biphenyl]-4-yl)carbamoyl)-[1,1′-biphenyl]-4-yl acetate] | –
5 | 330 ± 30 nM | 320 ± 90 nM | – | – | COc1ccc(C(=O)Nc2ccc(-c3ccc(OC4CCN(C)CC4)cc3)cc2)cc1-c1cccc(Cl)c1 [Compound 49f, 3′-chloro-6-methoxy-N-(4′-((1-methylpiperidin-4-yl)oxy)-[1,1′-biphenyl]-4-yl)-[1,1′-biphenyl]-3-carboxamide] | –
6 | 1060 ± 50 nM | 820 ± 130 nM | – | – | COc1ccc(C(=O)Nc2ccc(-c3ccc(OC4CCN(C)CC4)cc3)cc2)cc1-c1ccc(Cl)cc1 [Compound 49g, 4′-chloro-6-methoxy-N-(4′-((1-methylpiperidin-4-yl)oxy)-[1,1′-biphenyl]-4-yl)-[1,1′-biphenyl]-3-carboxamide] | –
7 | 400 ± 70 nM | 1090 ± 280 nM | – | – | COc1ccc(C(=O)Nc2ccc(-c3ccc(OC4CCN(C)CC4)cc3)cc2)cc1-c1cccc([N+](=O)[O-])c1 [Compound 49h, 6-methoxy-N-(4′-((1-methylpiperidin-4-yl)oxy)-[1,1′-biphenyl]-4-yl)-3′-nitro-[1,1′-biphenyl]-3-carboxamide] | –
8 | 2780 ± 350 nM | 2710 ± 450 nM | – | – | COc1cccc(-c2cc(C(=O)Nc3ccc(-c4ccc(OC5CCN(C)CC5)cc4)cc3)ccc2O)c1 [Compound 49j] | –
9 | 3160 ± 370 nM | 1600 ± 110 nM | – | – | Cc1ccc(C(=O)Nc2ccc(-c3ccc(OC4CCN(C)CC4)cc3)cc2)cc1-c1cccc(Cl)c1 [Compound 49k] | –
10 | 1560 ± 350 nM | 1080 ± 340 nM | – | – | COc1ccc(C(=O)Nc2ccc(-c3ccc(OC4CCN(C)CC4)cc3)cc2)cc1-c1cccc(O)c1 [Compound 50a, 3′-hydroxy-6-methoxy-N-(4′-((1-methylpiperidin-4-yl)oxy)-[1,1′-biphenyl]-4-yl)-[1,1′-biphenyl]-3-carboxamide] | –
11 | 130 ± 20 nM | 500 ± 10 nM | – | – | COc1ccc(C(=O)Nc2ccc(-c3ccc(OC4CCN(C)CC4)cc3)cc2)cc1-c1ccc(O)cc1 [Compound 50b, 4′-hydroxy-6-methoxy-N-(4′-((1-methylpiperidin-4-yl)oxy)-[1,1′-biphenyl]-4-yl)-[1,1′-biphenyl]-3-carboxamide] | –
12 | 1520 ± 550 nM | 1670 ± 680 nM | – | – | COc1ccc(C(=O)Nc2ccc(-c3ccc(OC4CCN(C)CC4)cc3)cc2)cc1-c1cccc(N)c1 [Compound 50c, 3′-amino-6-methoxy-N-(4′-((1-methylpiperidin-4-yl)oxy)-[1,1′-biphenyl]-4-yl)-[1,1′-biphenyl]-3-carboxamide] | –
13 | 3370 ± 740 nM | 1430 ± 280 nM | – | – | COc1ccc(C(=O)Nc2ccc(-c3ccc(OC4CCN(C)CC4)cc3)cc2)cc1-c1cccc(NC(C)=O)c1 [Compound 50d, 3′-acetamido-6-methoxy-N-(4′-((1-methylpiperidin-4-yl)oxy)-[1,1′-biphenyl]-4-yl)-[1,1′-biphenyl]-3-carboxamide] | –
14 | – | – | – | – | COc1cccc(-c2cc(NC(=O)Nc3ccc(-c4ccc(OC5CCN(C)CC5)cc4)cc3)ccc2OC)c1 [Compound 52, 1-(3′,6-dimethoxy-[1,1′-biphenyl]-3-yl)-3-(4′-((1-methylpiperidin-4-yl)oxy)-[1,1′-biphenyl]-4-yl)urea] | IC50 [1, 5]: 910 ± 80 nM; IC50 [2, 6]: 1260 ± 130 nM
15 | – | – | – | – | COc1cccc(-c2cc(C(=O)Nc3ccc(-c4ccc(OCCC5CCCCN5)cc4)cc3)ccc2OC)c1 (stereo not shown) [Compound 56a, 3′,6-dimethoxy-N-(4′-(2-(piperidin-2-yl)ethoxy)-[1,1′-biphenyl]-4-yl)-[1,1′-biphenyl]-3-carboxamide] | IC50 [1, 7]: 850 ± 200 nM; IC50 [2, 8]: 950 nM
16 | – | – | – | – | COc1cccc(-c2cc(C(=O)Nc3ccc(-c4ccc(OC5CC6CCC(C5)N6C)cc4)cc3)ccc2OC)c1 [Compound 56b, 3′,6-dimethoxy-N-(4′-(((1R,3s,5S)-8-methyl-8-azabicyclo[3.2.1]octan-3-yl)oxy)-[1,1′-biphenyl]-4-yl)-[1,1′-biphenyl]-3-carboxamide] | IC50 [1, 7]: 1670 ± 600 nM; IC50 [2, 8]: 1320 ± 230 nM
17 | – | – | – | – | COc1cccc(-c2cc(C(=O)Nc3ccc(-c4ccc(OCCCN(C)C)cc4)cc3)ccc2OC)c1 [Compound 56c, N-(4′-(3-(dimethylamino)propoxy)-[1,1′-biphenyl]-4-yl)-3′,6-dimethoxy-[1,1′-biphenyl]-3-carboxamide] | IC50 [1, 7]: 1020 ± 50 nM; IC50 [2, 8]: 870 ± 40 nM
18 | – | – | – | – | COc1cccc(-c2cc(NC(=O)c3ccc(-c4ccc(OC5CCN(C)CC5)cc4)cc3)ccc2OC)c1 [Compound 60] | IC50 [1, 5]: 1640 ± 790 nM; IC50 [2, 6]: 1220 ± 130 nM
19 | – | – | 1250 ± 40 nM | 770 ± 80 nM | CN1CCC(Oc2ccc(-c3cccc(NC(=O)C45CC6CC(CC(C6)C4)C5)c3)cc2)CC1 [Compound 61a, N-(4′-((1-methylpiperidin-4-yl)oxy)-[1,1′-biphenyl]-3-yl)adamantane-1-carboxamide] | –
20 | – | – | 2600 ± 710 nM | 2070 ± 90 nM | CN1CCC(Oc2cccc(-c3cccc(NC(=O)C45CC6CC(CC(C6)C4)C5)c3)c2)CC1 [Compound 61b, N-(3′-((1-methylpiperidin-4-yl)oxy)-[1,1′-biphenyl]-3-yl)adamantane-1-carboxamide] | –
21 | – | – | 2070 ± 350 nM | 2770 ± 230 nM | CN1CCC(Oc2ccc(-c3ccc(NC(=O)C45CC6CC(CC(C6)C4)C5)cc3)cc2)CC1 [Compound 61c, N-(4′-((1-methylpiperidin-4-yl)oxy)-[1,1′-biphenyl]-4-yl)adamantane-1-carboxamide] | –
22 | – | – | 1620 ± 70 nM | 2000 ± 70 nM | COc1cccc(-c2cc(C(=O)Nc3cccc(-c4cccc(OC5CCN(C)CC5)c4)c3)ccc2OC)c1 [Compound 61d, 3′,6-dimethoxy-N-(3′-((1-methylpiperidin-4-yl)oxy)-[1,1′-biphenyl]-3-yl)-[1,1′-biphenyl]-3-carboxamide] | –
23 | – | – | 3470 nM | 2710 ± 400 nM | CC(=O)Oc1ccc(C(=O)Nc2cccc(-c3ccc(OC4CCN(C)CC4)cc3)c2)cc1CC=C(C)C [Compound 61e, 2-(3-methylbut-2-en-1-yl)-4-((4′-((1-methylpiperidin-4-yl)oxy)-[1,1′-biphenyl]-3-yl)carbamoyl)phenyl acetate] | –
24 | – | – | 1760 ± 160 nM | 1700 ± 210 nM | CC(=O)Oc1ccc(C(=O)Nc2cccc(-c3cccc(OC4CCN(C)CC4)c3)c2)cc1CC=C(C)C [Compound 61f, 2-(3-methylbut-2-en-1-yl)-4-((3′-((1-methylpiperidin-4-yl)oxy)-[1,1′-biphenyl]-3-yl)carbamoyl)phenyl acetate] | –
25 | – | – | 4150 ± 960 nM | 4890 ± 80 nM | CN1CCC(Oc2cccc(-c3cccc(NC(=O)c4ccc(Cl)cc4)c3)c2)CC1 [Compound 61g, 4-chloro-N-(3′-((1-methylpiperidin-4-yl)oxy)-[1,1′-biphenyl]-3-yl)benzamide] | –
26 | – | – | 13200 ± 1970 nM | 8200 nM | COc1ccc(C(=O)Nc2cccc(-c3cccc(OC4CCN(C)CC4)c3)c2)cc1 [Compound 61h, 4-methoxy-N-(3′-((1-methylpiperidin-4-yl)oxy)-[1,1′-biphenyl]-3-yl)benzamide] | –
27 | – | – | 3360 ± 200 nM | 1930 ± 330 nM | CN1CCC(Oc2cccc(-c3cccc(NC(=O)c4ccc(C(C)(C)C)cc4)c3)c2)CC1 [Compound 61i, 4-(tert-butyl)-N-(3′-((1-methylpiperidin-4-yl)oxy)-[1,1′-biphenyl]-3-yl)benzamide] | –
28 | – | – | 1820 ± 210 nM | 1370 ± 180 nM | CC(=O)Oc1ccc(C(=O)Nc2ccc(-c3ccc(OC4CCN(C)CC4)cc3)cc2)cc1CC=C(C)C [Compound 61j, 2-(3-methylbut-2-en-1-yl)-4-((4′-((1-methylpiperidin-4-yl)oxy)-[1,1′-biphenyl]-4-yl)carbamoyl)phenyl acetate] | –
29 | – | – | – | – | COc1ccc(C(=O)Nc2ccc(Nc3ccc(OC4CCN(C)CC4)cc3)cc2)cc1 [drawing 159] | IC50 ([1]; SK-BR-3, Table 11, heteroatom linked biphenyl core): 18200 ± 2190 nM; IC50 ([2]; MCF7, Table 11, heteroatom linked biphenyl core): 2830 ± 1870 nM
